Measurements taken from patent US9669031B2, “MNK inhibitors and methods related thereto” (eFFECTOR Therapeutics, Inc., priority 2014, dated 2017).

Experiments:
[1] = in vivo; settings: female, Balb/c, mouse, po, 10 mg/kg; for AUC(0-t): AUClast; for half-life: T½
[2] = female, Balb/c, mouse, in vivo, po, 10 mg/kg
[3] = biological target: Mnk1 (Homo sapiens (Human), UniProt Q9BUB5); assay: biochemical
[4] = Pharmacokinetics in Balb/c mice, single intravenous bolus administration; assay type: in vivo; settings: intravenous bolus 1 mg/kg, formulation 10DMA/15EtOH/35PEG300/40D5W, gender F
[5] = biological target: Mnk2 (Homo sapiens (Human), UniProt Q9HBH9); assay: biochemical
Mnk2, sequence (Q9HBH9 whole entry): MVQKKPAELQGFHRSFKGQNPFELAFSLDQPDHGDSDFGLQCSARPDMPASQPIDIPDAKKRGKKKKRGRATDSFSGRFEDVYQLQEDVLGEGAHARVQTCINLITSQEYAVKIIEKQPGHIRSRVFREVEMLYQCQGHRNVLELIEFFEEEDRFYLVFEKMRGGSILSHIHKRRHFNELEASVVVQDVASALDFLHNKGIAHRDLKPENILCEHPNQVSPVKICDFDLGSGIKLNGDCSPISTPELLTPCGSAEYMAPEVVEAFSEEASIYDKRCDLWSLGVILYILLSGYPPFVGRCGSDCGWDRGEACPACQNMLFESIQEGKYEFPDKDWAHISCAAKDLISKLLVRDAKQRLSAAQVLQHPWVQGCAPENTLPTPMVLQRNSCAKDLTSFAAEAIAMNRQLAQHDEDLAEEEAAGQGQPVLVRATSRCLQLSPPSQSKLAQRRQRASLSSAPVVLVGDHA

Mnk1, sequence (Q9BUB5 whole entry): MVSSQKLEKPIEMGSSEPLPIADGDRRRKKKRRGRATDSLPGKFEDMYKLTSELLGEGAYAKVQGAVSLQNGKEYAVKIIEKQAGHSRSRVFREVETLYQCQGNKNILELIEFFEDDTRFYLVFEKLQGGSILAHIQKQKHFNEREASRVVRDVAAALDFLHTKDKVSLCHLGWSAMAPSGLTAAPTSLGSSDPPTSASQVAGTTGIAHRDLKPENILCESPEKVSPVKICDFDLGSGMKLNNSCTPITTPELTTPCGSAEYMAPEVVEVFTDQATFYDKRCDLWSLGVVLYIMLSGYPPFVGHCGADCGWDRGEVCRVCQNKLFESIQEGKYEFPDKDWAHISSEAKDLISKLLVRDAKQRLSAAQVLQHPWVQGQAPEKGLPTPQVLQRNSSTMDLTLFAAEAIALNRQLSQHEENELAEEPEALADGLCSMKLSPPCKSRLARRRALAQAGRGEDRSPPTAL

SMILES	AUC(0-t) [1]	Cmax [1]	Tmax [1]	half-life [1]	Tlast [2]	IC50 [3]	AUC(0-inf) ([4]; female, mouse, plasma, read-out: AUCINF_obs)	half-life ([4]; female, mouse, plasma, read-out: T½ (converted))	Vd ([4]; female, mouse, plasma, read-out: Vss)	Cl_obs [4]	IC50 [5]
Cl.O=C1NC2(CCCNC2)n2c1c(Cl)cc(Nc1cc(NC(=O)C3CC3)ncn1)c2=O (centres unmarked) [Cpd. No. 60, N-(6-((8-chloro-1,5-dioxo-1,5-dihydro-2H-spiro[imidazo[1,5-a]pyridine-3,3′-piperidin]-6-yl)amino)pyrimidin-4-yl)cyclopropanecarboxamide hydrochloride]	78.2 ng·h/mL	36 ng/mL	1 h	2.21 h	4 h	< 10 nM					
Nc1cc(Nc2cc(Cl)c3n(c2=O)C2(CCCC2)NC3=O)ncn1 [Cpd. No. 94, 6-[(6-aminopyrimidin-4-yl)amino]-8-chloro-spiro[2H-imidazo[1,5-a]pyridine-3,1′-cyclopentane]-1,5-dione]	6070 ng·h/mL	1800 ng/mL	0.5 h	2 h	8 h	< 10 nM	812 ng·h/mL	5.81 h	12.2 L/kg	20.5 mL/min/kg	
Cl.Nc1cc(Nc2cc(Cl)c3n(c2=O)C2(CCC(F)(F)CC2)NC3=O)ncn1 [Cpd. No. 99, 6-[(6-aminopyrimidin-4-yl)amino]-8-chloro-4′,4′-difluoro-spiro[2H-imidazo[1,5-a]pyridine-3,1′-cyclohexane]-1,5-dione hydrochloride]	1380 ng·h/mL	400 ng/mL	0.3 h	1.6 h	8 h	< 10 nM					< 10 nM
Cc1cc(Nc2cc(N)ncn2)c(=O)n2c1C(=O)NC2(C)C.Cl [Cpd. No. 102, 6-((6-aminopyrimidin-4-yl)amino)-3,3,8-trimethyl-2,3-dihydroimidazo[1,5-a]pyridine-1,5-dione hydrochloride]		1800 ng/mL	0.3 h	1.4 h							< 10 nM
Cl.Cl.Nc1cc(Nc2cc(Cl)c3n(c2=O)C2(CCNCC2)NC3=O)ncn1 [Cpd. No. 108, 6-((6-aminopyrimidin-4-yl)amino)-8-chloro-2H-spiro[imidazo[1,5-a]pyridine-3,4′-piperidine]-1,5-dione dihydrochloride]		44 ng/mL	0.3 h	0.3 h		< 10 nM					
CC1(C2CCCC2)N(C#N)C(=O)c2ccc(Nc3cc(N)ncn3)c(=O)n21 (centres unmarked) [Cpd. No. 118, 6-[(6-aminopyrimidin-4-yl)amino]-3-cyclopentyl-3-methyl-1,5-dioxo-imidazo[1,5-a]pyridine-2-carbonitrile]											< 10 nM
O=c1c(Nc2ccncn2)ccc2n1C1(CCCCC1)NC2=S [Cpd. No. 131, 6′-(pyrimidin-4-ylamino)-1′-thioxo-1′,2′-dihydro-5′H-spiro[cyclohexane-1,3′-imidazo[1,5-a]pyridin]-5′-one]						10 to 100 nM					
CC1(C)NC(=O)c2c(Cl)cc(Nc3ncnc4cnccc34)c(=O)n21 [Cpd. No. 165, 8-chloro-3,3-dimethyl-6-(pyrido[3,4-d]pyrimidin-4-ylamino)-2,3-dihydroimidazo[1,5-a]pyridine-1,5-dione]						10 to 100 nM					
Cc1cc(Nc2cc(N)ncn2)c(=O)n2c1C(=O)NC21CCCN(C)C1 (centres unmarked) [Cpd. No. 170, 6-[(6-aminopyrimidin-4-yl)amino]-1′,8-dimethyl-spiro[2H-imidazo[1,5-a]pyridine-3,3′-piperidine]-1,5-dione]						< 10 nM					
